Laboratory results taken from patent US9801832B2, “Pharmaceutical composition having synergistic action of direct catalase inhibitors and modulators of no metabolism or of extracellular superoxide anion production which lead to catalase destruction” (Universitaetsklinikum Freiburg, priority 2012, dated 2017).

Assays:
tumor cells [1] = conditions: cited from earlier work
[2] = test system: MKN-45 gastric carcinoma cells; test: Induction of apoptosis in MKN-45 gastric carcinoma cells (percentages of apoptotic cells); assay type: cell-based, human
Experimental: 12 500 MKN-45 cells in 100 μl (duplicate batches) were treated with the given concentrations of salicylic acid or remained free from salicylic acid. After 10 minutes the given concentrations of cyanidine were added.
12 500 MKN-45 cells in 100 μl (duplicate batches) were treated with 0.1 μg/ml salicylic acid or remained free from salicylic acid (control). […] After 6.5 hours the percentages of apoptotic cells were determined in duplicate batches.
12 500 MKN-45 cells in 100 μl (duplicate batches) either received no additive (control), 2 mM of the singlet oxygen scavenger histidine or 25 μM Caspase-8 inhibitor. […] After another 15 minutes cyanidine was added in the given concentrations. After 6.5 hours of incubation at 37° C. the percentages of apoptotic cells were determined.
12 500 MKN-45 cells in 100 μl (duplicate batches) either received no additive (control), 2 mM of the singlet oxygen scavenger histidine or 25 μM Caspase-8 inhibitor. […] After 6.5 hours incubation at 37° C. the percentage of apoptotic cells was determined. […]
12 500 MKN-45 cells in 100 μl medium were incubated with increasing concentrations of the given active ingredients, in the presence or absence of 0.1 μg/ml salicylic acid for 6 hours and then, the percentages of the apoptotic cells were determined (repeated determination).

thrombocytes = conditions: cited from earlier work
tumor cells [3] = conditions: cited from earlier work; remark: listed apart in the source
Gumbus lymphoma cells = test: Induction of apoptosis in Gumbus lymphoma cells (percentages of apoptotic cells); assay type: cell-based, human; conditions: Gumbus cells
Experimental: 12 500 MKN-45 gastric carcinoma cells (A) or 25 000 Gumbus lymphoma cells (B) in 100 μl complete medium each either remained untreated (control) or received 2 mM histidine (singlet oxygen scavenger), 50 mM taurine (HOCl scavenger), or 2.4 mM L-NAME (NOS inhibitor). In Experiment A, additionally 10 mM mannitol (hydroxyl radical scavenger), 150 μM ABH (peroxidase inhibitor), 100 U/ml MnSOD (superoxide anion scavenger) and 25 μM FeTPPS (peroxynitrite decomposer) were used. Subsequently, the given concentrations of salicylic acid were added. After 5 hours (A) and 4 hours, respectively, of incubation at 37° C. the percentages of apoptotic cells were determined in duplicate batches according to the classical apoptosis features nuclear condensation, nuclear fragmentation, and membrane blebbing. Here, at least 200 cells were evaluated pre batch. […] Inhibitors: singlet oxygen scavenger histidine 2 mM; HOCl scavenger taurine 50 mM, NOS inhibitor L-NAME 2.4 mM, peroxidase inhibitor ABH 150 μM.

tumor cell catalase = biological target: T1, tumor cell catalase (Homo sapiens, UniProt P04040); test: Catalase inhibition/inactivation in MKN-45 cells by challenge with exogenous peroxynitrite, NO donor or glucose oxidase; assay type: cell-based; design: endogenous in cells; host or cells: MKN-45 gastric carcinoma cells; conditions: 6.25 ng/ml salicylic acid; 200 μM peroxynitrite; MKN-45; 1.5 hours (FIG. 21)
T1 sequence (P04040 2-527 limits assumed): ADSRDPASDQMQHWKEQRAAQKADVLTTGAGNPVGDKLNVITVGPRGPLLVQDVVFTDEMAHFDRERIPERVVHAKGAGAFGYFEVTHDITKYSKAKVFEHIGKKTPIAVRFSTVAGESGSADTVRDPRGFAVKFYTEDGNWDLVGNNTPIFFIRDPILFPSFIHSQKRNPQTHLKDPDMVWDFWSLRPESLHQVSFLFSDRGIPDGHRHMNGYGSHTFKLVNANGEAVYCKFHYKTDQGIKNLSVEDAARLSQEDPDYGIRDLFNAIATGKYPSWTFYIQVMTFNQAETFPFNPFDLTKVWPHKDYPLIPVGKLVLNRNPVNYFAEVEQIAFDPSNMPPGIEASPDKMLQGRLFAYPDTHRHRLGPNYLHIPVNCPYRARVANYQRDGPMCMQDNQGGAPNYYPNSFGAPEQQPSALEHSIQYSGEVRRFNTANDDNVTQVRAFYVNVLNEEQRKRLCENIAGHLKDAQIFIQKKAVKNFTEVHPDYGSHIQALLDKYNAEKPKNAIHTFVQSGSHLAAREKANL
Experimental: Direct catalase inhibition with relevance to the induction of apoptosis in tumor cells can be determined by pre-incubating tumor cells at first in the presence of the singlet oxygen scavenger histidine (2 mM) with the substance to be tested in increasing concentration (between 10 and 30 minutes at 37° C.) and subsequently adding peroxynitrite in the concentration range between 10 and 200 μM. The tumor cells are protected from the apoptosis-triggering effect of peroxynitrite by their membranous catalase. An inhibition of the catalase partially or completely cancels this protection and in the presence of peroxynitrite leads to the induction of apoptosis. The presence of 2 mM histidine ensures that the measured induction of apoptosis is not a singlet oxygen-mediated inactivation of the catalase by destruction of its active center. Alternatively, instead of addition of histidine inhibition of the NADPH oxidase by 100 μM AEBSF may take place. With prevented superoxide anion production also no singlet oxygen formation in the test system is possible.
4000 MKN-45 cells per 100 μl in […] were treated with increasing concentrations of monoclonal antibodies against catalase “Anti-KAT” or Anti-EGFR. After 15 minutes either 200 μM peroxynitrite (“PON”), 0.5 mM DEA-NONOate (rapidly decomposing NO donor), or 2 mU/ml glucose oxidase (GOX) that continuously generates hydrogen peroxide were added. After another two hours at 37° C. the percentages of apoptotic cells were determined in duplicate batches.
The principle of identification is based on the fact that tumor cells (here MKN-45 gastric carcinoma cells) are protected from the apoptosis-triggering effect of exogenously added peroxynitrite by their membranous catalase. Addition of catalase inhibitors sensitizes the cells to the effect of exogenous peroxynitrite.
The experiment was performed in analogy to that described in FIG. 9 except that instead of Anti-KAT a monoclonal antibody against SOD was used. The cells were tested in two different densities, namely 4000 and 12 500 cells per 100 μl. The challenge to test the activity of catalase was carried out with 200 μM peroxynitrite, or 0.5 mM DEA NONOate or 2 mU/ml GOX.
Subsequently, 200 μM or no peroxynitrite was added. After 1.5 hours the percentages of apoptotic cells were determined in duplicate batches.
Subsequently, 200 μM or no peroxynitrite was added. After 1 hour the percentages of apoptotic cells were determined in duplicate batches.
12 500 MKN-45 cells in 100 μl medium received 100 μM AEBSF or no additive. After 15 minutes the given concentrations of cyanidine were added and the batches were incubated for 15 minutes at 37° C. Subsequently, 200 μM peroxynitrite (PON) were added or the batches were not treated with peroxynitrite (control). After 1 hour the percentages of apoptotic cells were determined in duplicate batches.
12 500 MKN-45 cells received no addition (control), or 2 mM histidine, or 100 μM AEBSF or 2.4 mM L-NAME immediately before the addition of the given concentrations of salicylic acid (“0 min”) or 20 minutes after addition of salicyl. 20 minutes after the addition of salicylic acid 200 μM peroxynitrite (PON) were added to all batches except the control batches. After another 2 hours the percentages of apoptotic cells were determined in duplicates.

Compound: Nc1nc[nH]n1 [3-aminotriazole]
- sensitivity of tumor cells for ROS signaling-mediated apoptosis (autocrine and by interaction with non-transformed cells) (tumor cells [1]): become sensitive for these two processes

Compound: Oc1ccc(C=Cc2cc(O)cc(O)c2)cc1 [resveratrol]
- synergistic interaction with salicylic acid in the induction of apoptosis ([2]; 0.1 μg/ml salicylic acid, MKN-45, 6 hours (FIGS. 22-25)): synergistically reacts
- induction of apoptosis ([2]; substance alone, 12 500 MKN-45 cells in 100 μl, 4-6.5 hours at 37° C.): still does not lead to a significant induction of apoptosis
- minor increase of the superoxide anion production (thrombocytes; 6.25 and 12.5 μg/ml): statistically insignificant
- production of superoxide anions, hydrogen peroxide, and singlet oxygen (thrombocytes): leads to a reduction of the production of superoxide anions, hydrogen peroxide, and singlet oxygen
- superoxide anion production (tumor cells [3]): leads to a dramatic increase of the superoxide anion production

Compound: CC(=O)O[C@H]1C(=O)[C@@]2(C)[C@H]([C@H](OC(=O)c3ccccc3)[C@]3(O)C[C@H](OC(=O)[C@H](O)[C@@H](NC(=O)c4ccccc4)c4ccccc4)C(C)=C1C3(C)C)[C@]1(OC(C)=O)CO[C@@H]1C[C@@H]2O [taxol]
- concentration up to which a necessary involvement of Caspase-8 can be seen ([2]; alone, 25 μM Caspase-8 inhibitor, MKN-45, 6.5 hours (FIG. 19)): up to 370 ng/ml
- dependence of the induction of apoptosis on singlet oxygen ([2]; substance alone, 2 mM histidine (singlet oxygen scavenger), MKN-45): depends on singlet oxygen
- dependence of the induction of apoptosis on singlet oxygen (Gumbus lymphoma cells; 2 mM histidine (singlet oxygen scavenger)): caused by a fast singlet oxygen-dependent step that inactivates catalase within the first hour
- ROS signal path of the induced apoptosis (inhibitor profile) (Gumbus lymphoma cells; L-NAME, taurine, ABH): at low concentrations of taxol is via the NO/peroxynitrite path, at higher concentrations via the HOCl path
- synergistic effect with salicylic acid on catalase inactivation (tumor cell catalase): synergistic effect on the catalase inactivation
